Assay results: ChEMBL document CHEMBL4619738, “Ansamycin derivatives from the marine-derived Streptomyces sp. SCSGAA 0027 and their cytotoxic and antiviral activities” (Bioorg Med Chem Lett, 2020); call rule not given here
≈ marks a conversion by molar mass, not a printed value.

Tests used:
Shewanella oneidensis = assay: Antibacterial activity against Shewanella oneidensis MR-1; assay type: functional
[1] = system: Bacillus amyloliquefaciens; assay: Antibacterial activity against Bacillus amyloliquefaciens; assay type: functional
Staphylococcus aureus = assay: Antibacterial activity against Staphylococcus aureus; assay type: functional
[2] = biological target: Heat shock protein HSP 90-alpha (Homo sapiens, UniProt P07900); assay: Inhibition of HSP90alpha (unknown origin)
A549 = assay: Cytotoxicity against human A549 cells assessed as reduction in cell viability; assay type: functional, cell-based
K562 = assay: Cytotoxicity against human K562 cells assessed as reduction in cell viability; assay type: functional, cell-based
MCF7 [3] = assay: cells; details: Homo sapiens
HL-60 [4] = assay: cells; details: Homo sapiens
Description: (§1) Cytotoxicity against human HL60 cells assessed as reduction in cell viability

MCF7 [5] = system: MCF7
HL-60 [6] = system: HL-60
Description: as §1

[7] = Cytotoxicity against African green monkey Vero cells assessed as reduction in cell viability; assay type: cell-based; details: chlorocebus sabaeus
Human alphaherpesvirus 1 = assay: Antiviral activity against HSV-1 by plaque reduction assay; assay type: functional, organism-based
[8] = Homo sapiens, K562, read-out: IC50

With CO[C@H]1/C=C\C=C(/C)C(=O)NC2=CC(=O)C(O)=C(C[C@@H](C)C[C@H](OC)[C@H](O)[C@@H](C)/C=C(\C)[C@@H]1OC(N)=O)C2=O the MIC (Shewanella oneidensis) was over 200 µg/mL, the MIC [1] was over 200 µg/mL and the MIC (Staphylococcus aureus) was over 200 µg/mL. For the same compound, the IC50 ([2]; read-out: IC50) was 4.1 µM, the IC50 (A549) was 7.7 µM and the IC50 (K562; [8]) was 4.8 µM. The IC50 (MCF7 [3]) was 9.9 µM and the IC50 (HL-60 [4]) was 36 µM.
CO[C@H]1C[C@H](C)Cc2cc(cc(O)c2O)NC(=O)/C(C)=C/CC[C@H](OC)[C@@H](OC(N)=O)/C(C)=C/[C@H](C)[C@H]1O gave an MIC (Shewanella oneidensis) of over 200 µg/mL, an MIC [1] of over 200 µg/mL and an MIC (Staphylococcus aureus) of over 200 µg/mL. For the same compound, the IC50 ([2]; read-out: IC50) was 0.03 µM, the IC50 (A549) was over 50 µM and the IC50 (K562; k562) was “Not Active”. The IC50 (MCF7 [5]) was “Not Active” and the IC50 (HL-60 [6]) was “Not Active”.
For COc1c(O)cc2c3c1C[C@@H](C)C[C@H](OC)[C@H](O3)[C@@H](C)/C=C(\C)[C@H](OC(N)=O)[C@@H](OC)/C=C/C=C(\C)C(=O)N2, the MIC (Shewanella oneidensis) was over 200 µg/mL, the MIC [1] was over 200 µg/mL and the MIC (Staphylococcus aureus) was over 200 µg/mL. The IC50 [2] was “Not Active”, the IC50 (A549) was 37 µM and the IC50 (K562; [8]) was 43 µM. For the same compound, the IC50 (MCF7 [3]) was 36 µM and the IC50 (HL-60 [4]) was 35 µM.
CC[C@H]1/C=C/[C@@H]([C@H](C)O)OC(=O)/C(C)=C/CC(=O)Nc2cc(O)cc3c2O[C@@]2(CC1)CC(=O)[C@@H](C)[C@H]3O2 gave a CC50 [7] of 510 µM, an MNTC ([7]; read-out: MNCC) of 160 µM and an IC50 (Human alphaherpesvirus 1) of 19 µM.
COc1c(O)cc2c3c1C[C@@H](C)C[C@H](OC)[C@H](O3)[C@@H](C)/C=C(\C)[C@H](OC(N)=O)[C@@H](OC)CC/C=C(\C)C(=O)N2 gave an MIC (Shewanella oneidensis) of over 200 µg/mL, an MIC [1] of over 200 µg/mL and an MIC (Staphylococcus aureus) of over 200 µg/mL. For the same compound, the IC50 [2] was “Not Active”, the IC50 (A549) was 65 µM and the IC50 (K562; [8]) was 43 µM. The IC50 (MCF7 [3]) was 70 µM and the IC50 (HL-60 [4]) was 86 µM.
With COc1c(O)cc2c3c1C[C@@H](C)C[C@H](OC)[C@H](O3)[C@@H](C)/C=C(\C)[C@H](OC(N)=O)[C@@H](OC)C[C@@H](O)/C=C(\C)C(=O)N2 the MIC (Shewanella oneidensis) was over 200 µg/mL, the MIC [1] was 100 µg/mL (≈ 178 µM) and the MIC (Staphylococcus aureus) was 50 µg/mL (≈ 88.9 µM). It also gave an IC50 ([2]; read-out: IC50) of 96 µM, an IC50 (A549) of over 100 µM and an IC50 (K562; [8]) of over 100 µM. For the same compound, the IC50 (HL-60 [6]) was “Not Active” and the IC50 (MCF7 [3]) was over 100 µM.
With COc1c(O)cc2c3c1C[C@@H](C)C[C@H](OC)[C@H](O3)[C@@H](C)/C=C(\C)[C@H](OC(N)=O)[C@@H](OC)/C=C\C=C(\C)C(=O)N2 the MIC (Shewanella oneidensis) was over 200 µg/mL, the MIC [1] was over 200 µg/mL and the MIC (Staphylococcus aureus) was over 200 µg/mL. The IC50 [2] was “Not Active”, the IC50 (A549) was 13 µM and the IC50 (K562; [8]) was 18 µM. For the same compound, the IC50 (MCF7 [3]) was 35 µM and the IC50 (HL-60 [4]) was 48 µM.
In the case of COc1c(O)cc2c3c1C[C@@H](C)C[C@H](OC)[C@H](O3)[C@@H](C)/C=C(\C)[C@H](OC(N)=O)[C@@H](OC)/C=C\C=C(/C)C(=O)N2, the MIC (Shewanella oneidensis) is reported as over 200 µg/mL, the MIC [1] is reported as over 200 µg/mL and the MIC (Staphylococcus aureus) is reported as over 200 µg/mL. For the same compound, the IC50 [2] was “Not Active”, the IC50 (A549) was 16 µM and the IC50 (K562; [8]) was 14 µM. For the same compound, the IC50 (MCF7 [3]) was 20 µM and the IC50 (HL-60 [4]) was 27 µM.
Compound COC1=C2C[C@@H](C)C[C@H](OC)[C@H](O)[C@@H](C)/C=C(\C)[C@H](OC(N)=O)[C@@H](OC)/C=C\C=C(/C)C(=O)NC(=CC1=O)C2=O [GELDANAMYCIN] has an MIC (Shewanella oneidensis) of over 200 µg/mL, an MIC [1] of over 200 µg/mL and an MIC (Staphylococcus aureus) of over 200 µg/mL.
CO[C@H]1/C=C\C=C(/C)C(=O)NC2=CC(=O)C=C(C2=O)[C@H](OC)[C@@H](C)C[C@H](OC)[C@H](O)[C@@H](C)/C=C(\C)[C@@H]1OC(N)=O [HERBIMYCIN C] gave an MIC (Shewanella oneidensis) of over 200 µg/mL, an MIC [1] of 100 µg/mL (≈ 178 µM) and an MIC (Staphylococcus aureus) of 50 µg/mL (≈ 89.2 µM). For the same compound, the IC50 ([2]; read-out: IC50) was 31 µM, the IC50 (A549) was 19 µM and the IC50 (K562; [8]) was 20 µM. It also gave an IC50 (MCF7 [3]) of 20 µM and an IC50 (HL-60 [4]) of 56 µM.
For CC(=O)O[C@H]1C(=O)[C@@]2(C)[C@H]([C@H](OC(=O)c3ccccc3)[C@]3(O)C[C@H](OC(=O)[C@H](O)[C@@H](NC(=O)c4ccccc4)c4ccccc4)C(C)=C1C3(C)C)[C@]1(OC(C)=O)CO[C@@H]1C[C@@H]2O [PACLITAXEL], the IC50 [2] was “Not Active”.
With COc1c(O)cc2cc1C[C@@H](C)C[C@H](OC)[C@H](O)[C@@H](C)/C=C(\C)[C@H](OC(N)=O)[C@@H](OC)CC/C=C(\C)C(=O)N2 [REBLASTATIN] the MIC (Shewanella oneidensis) was over 200 µg/mL, the MIC [1] was over 200 µg/mL and the MIC (Staphylococcus aureus) was over 200 µg/mL. For the same compound, the IC50 ([2]; read-out: IC50) was 0.005 µM, the IC50 (A549) was 0.7 µM and the IC50 (MCF7 [5]) was “Not Active”. For the same compound, the IC50 (HL-60 [6]) was “Not Active”.
